SMILES strings stand for the structures.

Consider six compounds from US7807673B2, “2-pyrimidinyl pyrazolopyridine ErbB kinase inhibitors” (GlaxoSmithKline LLC, priority 2005, dated 2010).

Assay [1] deals with T1, ErbB2 or EGFR.
T1 construct: enzymes purified from a baculovirus expression system
The experiment in a line: ErbB enzyme substrate phosphorylation assay (HTRF), Method A. In kind it is biochemical. To be noted: Table 1, enzyme Method A: substrate mix added first, reaction started with enzyme mix; class over ErbB2 or EGFR. How it is done:
Compounds of the present invention were tested for EGFR, ErbB-2, and ErbB-4 protein tyrosine kinase inhibitory activity in substrate phosphorylation assays using enzymes purified from a baculovirus expression system. Reagent production was conducted essentially as described in Brignola, P. S., et al, (2002) J. Biol. Chem. 277(2): 1576-1585.
The method measures the ability of the isolated enzyme to catalyse the transfer of the gamma-phosphate from ATP onto the tyrosine residue of a biotinylated synthetic peptide referenced “Peptide C” in Brignola, P. S., et al, (2002) J. Biol. Chem. 277(2):1576-1585. The extent of tyrosine phosphorylation was measured using an anti-phosphotyrosine antibody, and quantified by homogenous time-resolved fluorescence (HTRF).
Reactions were performed in black 384-well polystyrene flat-bottom plates in a final volume of 20 μl. Assays were performed by adding 10 μl of each of the following solutions, substrate Mix and enzyme mix: The Substrate mix contained 100 mM 3-[N-morpholino]propanesulfonic acid (MOPS) (pH 7.5), 2 mM MnCl2, 20 μM ATP, 0.01% Tween-20, 0.1 mg/mL (BSA), 0.8 uM peptide substrate, and 1 mM dithiothreitol. The enzyme mix contained 100 mM MOPS (pH7.5); 0.01% Tween-20; 0.1 mg/mL BSA, and either 0.8 nM EGFR, 10 nM ErbB2, or 1 nM ErbB4
During the course of these studies, two separate methods have been used to measure the potency of compounds. In Method A, the substrate mix was added to the compound plates first, then the reaction was started by adding the enzyme mix. In Method B, the enzyme mix was added to the compound plates and the plates were incubated at 20° C. for 1 hour. The reactions were then started by adding the substrate mix.
After initiating the reaction with either method describe above, the reactions were allowed to proceed for 90 minutes at 20° C. The reactions were then terminated by the addition of 20 μl 100 mM EDTA to each well. 40 μl/well of HTRF detection mix were added to the assay plates. The final concentrations of the detection reagents were: 100 mM HEPES (pH7.5), 0.1 mg/mL BSA, 15 nM streptavidin-labeled allophycocyanin (PerkinElmer), and 1 nM europium-labeled anti-phosphotyrosine antibody (PerkinElmer). Assay plates were left unsealed and were counted in a Wallac Multilabel Counter 1420 (PerkinElmer). […]
The data for dose responses were plotted as % Inhibition calculated with the data reduction formula 100*(1−(U1−C2)/(C1−C2)) versus concentration of compound where U is the unknown value, C1 is the average control value obtained for 4.76% DMSO, and C2 is the average control value obtained for 0.035 M EDTA. […] The results for each compound were recorded as pIC50s, calculated as follows: pIC50=−Log 10(K)

In assay [2] the test system is BT474 and HN5 tumor cell lines. As to the kind of experiment: Methylene blue growth inhibition assay (cellular Method A). The class given is cell-based. Particulars: Homo sapiens, BT-474 and HN5, 72 h; Table 2, Method A methylene blue, 3 days; class over BT474 and HN5. How it is done: (§1) Human breast (BT474) and head and neck (HN5) were cultured in low glucose DMEM (Life Technologies 12320-032) containing 10% fetal bovine serum (FBS). Human colon tumor cells (Colo205) were cultured in DMEM (Invitrogen, 10564) containing 10% FBS. The SV40 transformed human mammary epithelial cell line to HB4a was transfected with either human H-ras cDNA (HB4a r4.2) or the human c-ErbB2 cDNA (HB4a c5.2). The HB4a clones were cultured in RPMI containing 10% FBS, insulin ([…]), hydrocortisone ([…]), supplemented with the selection agent hygromycin B ([…]). All lines were grown in a humidified incubator at 37° C. in 95% air, 5% CO2. Cells were harvested using trypsin/EDTA, counted using a haemocytometer, and plated in 100 microliters of the appropriate media, at the following densities, in a 96-well tissue culture plate (Falcon 3075): BT474 10,000 cells/well, HN5 3,000 cells/well. The next day, compounds were diluted in DMEM containing […] gentamicin, at twice the final required concentration, from 10 mM stock solutions in DMSO. 100 microliters/well of these dilutions were added to the 100 microliters of media currently on the cell plates. Medium containing 0.6% DMSO was added to control wells. Compounds diluted in DMEM were added to all cell lines. The final concentration of DMSO in all wells was 0.3%. Cells were returned to the incubator (37° C., […]) for 3 days. Medium was then removed by aspiration. Cell biomass was estimated by staining cells with 90 microliters per well methylene blue (Sigma M9140, 0.5% in 1:1 ethanol:water), and incubation at rt for at least 30 minutes. Stain was removed, and the plates rinsed by immersion in deionized water and air-dried. To release stain from the cells 100 microliters of solubilization solution was added (1% N-lauroyl sarcosine, Sodium salt, Sigma L5125, in PBS), and plates were shaken gently for about 30 minutes. Optical density at 620 nm was measured on a microplate reader. Percent inhibition of cell growth was calculated relative to vehicle treated control wells. Concentration of compound that inhibits 50% of control cell growth (IC50) was interpolated using nonlinear regression (Levenberg-Marquardt) and the equation, y=Vmax*(1−(x/(K+x)))+Y2, where “K” was equal to the IC50. Method B: Celltiter Glo® Growth Inhibition Assays

Assay [3] has as its system Colo205 tumor cell lines. The assay is described as above. The class given is cell-based. To be noted: Homo sapiens, COLO 205, 72 h, Table 3, Method A methylene blue, 3 days. How it is done: as §1
Assay [4] has as its target T1, ErbB2 or EGFR. As to the kind of experiment: ErbB enzyme substrate phosphorylation assay (HTRF), Method B (enzyme pre-incubated with compound 1 hour). In kind it is biochemical. Particulars: Table 1, enzyme Method B: enzyme mix incubated with compound 1 hour at 20° C., reaction started with substrate mix; class over ErbB2 or EGFR. In a few lines: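 Baculovirus-expressed kinase (0.8 nM EGFR or 10 nM ErbB2 in enzyme mix) phosphorylated biotinylated Peptide C (0.8 µM in substrate mix) with 20 µM ATP in substrate mix, MOPS pH 7.5, MnCl2, 90 min at 20 °C. Method A started with enzyme; Method B pre-incubated enzyme with compound 1 h at 20 °C. HTRF read-out; IC50 from 12-point curve (0.00027–47.6 µM), reported as pIC50.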
On the technique in general: Time-resolved FRET reads energy transfer from a long-lived donor to a nearby acceptor.

As usually defined, the IC50 is the point on the concentration scale where inhibition reaches its midpoint. A lower IC50 goes with greater potency. Take `O=C(Cc1ccccc1)Nc1cccc(-c2nn3ccccc3c2-c2ccnc(Nc3ccccc3)n2)c1` [Example 3, 2-Phenyl-N-(3-{3-[2-(phenylamino)-4-pyrimidinyl]pyrazolo[1,5-a]pyridin-2-yl}phenyl)acetamide]: the “Activity (Method)” value in assay [1] is “++ (A) (at least one pIC50 measurement greater than 6 against either ErbB2 or EGFR but no measurement greater than pIC50 of 7)”. Besides, the IC50 in assay [2] and in assay [3] was > 1000 nM each time.
Turning to `O=C(Cc1cccs1)Nc1cccc(-c2nn3ccccc3c2-c2ccnc(Nc3ccccc3)n2)c1` [Example 4, N-(3-{3-[2-(Phenylamino)-4-pyrimidinyl]pyrazolo[1,5-a]pyridin-2-yl}phenyl)-2-(2-thienyl)acetamide], the “Activity (Method)” value in assay [1] is given as “++ (A) (at least one pIC50 measurement greater than 6 against either ErbB2 or EGFR but no measurement greater than pIC50 of 7)”.
Same read-out and setting: as for `O=C(Cc1cccc(Cl)c1)Nc1cccc(-c2nn3ccccc3c2-c2ccnc(Nc3ccccc3)n2)c1` [Example 5, 2-(3-Chlorophenyl)-N-(3-{3-[2-(phenylamino)-4-pyrimidinyl]pyrazolo-[1,5-a]pyridin-2-yl}phenyl)acetamide], the entry is “+ (A) (no pIC50 measurement greater than 6 against either ErbB2 or EGFR)”.
Take `O=C(Cc1cc(F)ccc1F)Nc1cccc(-c2nn3ccccc3c2-c2ccnc(Nc3ccccc3)n2)c1` [Example 6, 2-(2,5-Difluorophenyl)-N-(3-{3-[2-(phenylamino)-4-pyrimidinyl]pyrazolo[1,5-a]pyridin-2-yl}phenyl)acetamide]: in assay [1], the “Activity (Method)” value is “++ (A) (at least one pIC50 measurement greater than 6 against either ErbB2 or EGFR but no measurement greater than pIC50 of 7)”.
As for `NC1Cc2ccc(Nc3nccc(-c4c(-c5cccc(NC(=O)Cc6cccs6)c5)nn5ccccc45)n3)cc2C1` (stereo not drawn) [Example 54, N-[3-(3-{2-[(2-Amino-2,3-dihydro-1H-inden-5-yl)amino]-4-pyrimidinyl}pyrazolo[1,5-a]pyridin-2-yl)phenyl]-2-(2-thienyl)acetamide], the “Activity (Method)” value in assay [4] was “+++ (B) (at least one pIC50 measurement of greater than 7 against either ErbB2 or EGFR)”. Also, the IC50 is < 100 nM in assay [2] and 100 to 1000 nM in assay [3].
The matching figures for `NC1CCc2ccc(Nc3nccc(-c4c(-c5cccc(NC(=O)Cc6cccs6)c5)nn5ccccc45)n3)cc2C1` (stereo not drawn) [Example 55, N-[3-(3-{2-[(7-Amino-5,6,7,8-tetrahydro-2-naphthalenyl)amino]-4-pyrimidinyl}pyrazolo[1,5-a]pyridin-2-yl)phenyl]-2-(2-thienyl)acetamide]: “+++ (B) (at least one pIC50 measurement of greater than 7 against either ErbB2 or EGFR)”, 100 to 1000 nM and 100 to 1000 nM.
